pIC50: −log10 of the molar value. Activity calls are given as the source filed them. The calls are words filed in the database; no cut-off is given here.
Legend:
MGC-803 [1] = assay: Cell cycle arrest in human MGC803 cells assessed as accumulation of cells at S phase at 2.5 uM incubated for 48 hrs by propidium iodide staining based flow cytometry (reference value: 32.97%); type: functional
MGC-803 [2] = assay: Induction of apoptosis in human MGC803 cells assessed as necrotic cells at 1 uM incubated for 24 hrs by Annexin V-FITC/propidium iodide staining based flow cytometry (reference value: 1.81 +/- 0.09 %); type: functional
MGC-803 [3] = assay: Cell cycle arrest in human MGC803 cells assessed as increase in p27 expression at 0.5 to 2.5 uM incubated for 24 hrs by Western blot analysis; type: functional, cell-based
MGC-803 [4] = assay: Induction of apoptosis in human MGC803 cells assessed as necrotic cells at 2.5 uM incubated for 24 hrs by Annexin V-FITC/propidium iodide staining based flow cytometry (reference value: 1.81 +/- 0.09 %); type: functional
MGC-803 [5] = assay: Induction of apoptosis in human MGC803 cells assessed as increase in Bak levels at 0.5 to 2.5 uM after 24 hrs by Western blot analysis; type: functional, cell-based
Quadruplex DNA [6] = assay: Binding affinity to human HTG21 G-quadruplex DNA assessed as Stern-Volmer quenching constant by fluorometric titration assay; type: nucleic-acid assay
Quadruplex DNA [7] = assay: Binding affinity to human Pu27 G-quadruplex DNA at 10 uM incubated for 5 mins by CD spectroscopy; type: nucleic-acid assay
MGC-803 [8] = assay: Induction of apoptosis in human MGC803 cells assessed as viable cells at 1 uM incubated for 24 hrs by Annexin V-FITC/propidium iodide staining based flow cytometry (reference value: 96.53+/-2.11%); type: functional; conditions: MGC-803, 24 h, read-out: Activity
T-24 = assay: Antiproliferative activity against human T24 cells assessed as reduction in cell viability incubated for 48 hrs by MTT assay; type: functional, cell-based; conditions: T-24, 48 h
MGC-803 [9] = assay: Induction of apoptosis in human MGC803 cells assessed as increase in ROS generation incubated for 24 hrs by DCFH-DA dye-based flow cytometric analysis; type: functional, cell-based
MGC-803 [10] = assay: Induction of apoptosis in human MGC803 cells assessed as necrotic cells at 0.5 uM incubated for 24 hrs by Annexin V-FITC/propidium iodide staining based flow cytometry (reference value: 1.81 +/- 0.09 %); type: functional
Quadruplex DNA [11] = assay: Binding affinity to human c-Kit-1 G-quadruplex DNA at 10 uM incubated for 5 mins by CD spectroscopy; type: nucleic-acid assay
Calf thymus DNA = assay: Binding affinity to calf thymus DNA at 10 uM incubated for 5 mins by CD spectroscopy; type: nucleic-acid assay; conditions: Bos taurus
MGC-803 [12] = assay: Cell cycle arrest in human MGC803 cells assessed as down regulation of CDK2 expression at 0.5 to 2.5 uM incubated for 24 hrs by immunoblot analysis; type: functional, cell-based
MGC-803 [13] = assay: Induction of apoptosis in human MGC803 cells assessed as increase in Bax levels at 0.5 to 2.5 uM after 24 hrs by Western blot analysis; type: functional, cell-based
MGC-803 [14] = assay: Induction of mitochondrial membrane depolarization in human MGC803 cells at 2.5 uM incubated for 24 hrs by JC-1 dye-based flow cytometric analysis (Rvb 3.37%); type: functional
MGC-803 [15] = assay: Induction of apoptosis in human MGC803 cells assessed as activated caspase-3 level at 2.5 uM after 24 hrs by FITC staining-based flow cytometric analysis (Rvb= 3.46%); type: functional
HepG2 = assay: Antiproliferative activity against human HepG2 cells assessed as reduction in cell viability incubated for 48 hrs by MTT assay; type: functional, cell-based; conditions: HepG2, 48 h
MGC-803 [16] = assay: Induction of apoptosis in human MGC803 cells assessed as late apoptotic cells at 0.5 uM incubated for 24 hrs by Annexin V-FITC/propidium iodide staining based flow cytometry (reference value: 0.69 +/- 0.05 %); type: functional
MGC-803 [17] = assay: Induction of apoptosis in human MGC803 cells assessed as late apoptotic cells at 2.5 uM incubated for 24 hrs by Annexin V-FITC/propidium iodide staining based flow cytometry (reference value: 0.69 +/- 0.05 %); type: functional
MGC-803 [18] = assay: Cell cycle arrest in human MGC803 cells assessed as accumulation of cells at G2/M phase incubated for 48 hrs by propidium iodide staining-based flow cytometry; type: functional
Quadruplex DNA [19] = assay: Binding affinity to human Pu27 G-quadruplex DNA assessed as Stern-Volmer quenching constant by fluorometric titration assay; type: nucleic-acid assay
MGC-803 [20] = assay: Induction of apoptosis in human MGC803 cells assessed as formation of apoptotic bodies at 2.5 uM after 24 hrs by Hoechst 33258 staining-based fluorescence microscopic method; type: functional, cell-based
NCI-H460 = assay: Antiproliferative activity against human NCI-H460 cells assessed as reduction in cell viability incubated for 48 hrs by MTT assay; type: functional, cell-based; conditions: NCI-H460, 48 h
[21] = biological target: T1, DNA topoisomerase I (Bos taurus) (UniProt F1MN93); assay: Inhibition of calf thymus topoisomerase1-mediated relaxation of supercoiled pBR322 DNA at 5 uM measured after 30 mins by ethidium bromide staining based agarose gel electrophoresis
T1 sequence (whole entry): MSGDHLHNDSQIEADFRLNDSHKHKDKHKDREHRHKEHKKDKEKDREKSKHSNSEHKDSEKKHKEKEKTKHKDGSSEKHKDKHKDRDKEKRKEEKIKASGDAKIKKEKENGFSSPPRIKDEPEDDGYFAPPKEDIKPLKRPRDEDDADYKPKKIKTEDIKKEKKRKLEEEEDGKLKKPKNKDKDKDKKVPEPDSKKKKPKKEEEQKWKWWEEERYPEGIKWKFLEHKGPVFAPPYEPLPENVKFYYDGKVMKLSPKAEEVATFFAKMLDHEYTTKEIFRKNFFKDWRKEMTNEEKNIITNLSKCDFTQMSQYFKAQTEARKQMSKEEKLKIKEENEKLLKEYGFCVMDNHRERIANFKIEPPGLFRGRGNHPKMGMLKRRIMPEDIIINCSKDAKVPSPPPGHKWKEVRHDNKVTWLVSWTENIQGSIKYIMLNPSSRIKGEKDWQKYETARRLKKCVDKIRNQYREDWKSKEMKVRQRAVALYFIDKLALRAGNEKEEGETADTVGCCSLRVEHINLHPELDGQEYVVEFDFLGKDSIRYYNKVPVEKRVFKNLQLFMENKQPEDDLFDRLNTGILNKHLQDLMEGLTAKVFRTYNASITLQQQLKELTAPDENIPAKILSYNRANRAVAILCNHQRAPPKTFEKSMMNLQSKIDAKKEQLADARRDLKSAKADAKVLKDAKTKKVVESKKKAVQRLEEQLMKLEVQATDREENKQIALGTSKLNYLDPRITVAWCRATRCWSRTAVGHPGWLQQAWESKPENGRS

MGC-803 [22] = assay: Induction of apoptosis in human MGC803 cells assessed as viable cells at 2.5 uM incubated for 24 hrs by Annexin V-FITC/propidium iodide staining based flow cytometry (reference value: 96.53+/-2.11%); type: functional; conditions: MGC-803, 24 h, read-out: Activity
MGC-803 [23] = assay: Antitumor activity against human MGC803 cells xenografted in BALB/C mouse assessed as tumor growth inhibition at 6 mg/kg, ip administered every other day for 2 weeks measured during compound dosing relative to control; type: functional; conditions: MGC-803, ip, 336 h, read-out: TGI

- Kq (Quadruplex DNA [6]): 1.56 ×10⁷ No_unit
- Activity (Quadruplex DNA [7]): Active
- Activity (Quadruplex DNA [11]): Active
- Activity (Calf thymus DNA): Active
- pIC50 (HepG2): 5.75
- Kq (Quadruplex DNA [19]): 1.5 ×10⁷ No_unit
- pIC50 (NCI-H460): 5.71
- inhibition [21]: Active
Compound: CN(C)CCCNc1c2c(nc3ccc(F)cc13)-c1ccccc1C2
- Activity (MGC-803 [1]): 59.44%
- Activity (MGC-803 [2]): 4.69%
- Activity (MGC-803 [3]): Active
- Activity (MGC-803 [4]): 4.01%
- Activity (MGC-803 [5]): Active
- viability at 1 µM (MGC-803 [8]): 58.3%
- pIC50 (T-24): 6.08
- Activity (MGC-803 [9]): Dose-dependent effect
- Activity (MGC-803 [10]): 1.76%
- Activity (MGC-803 [12]): Active
- Activity (MGC-803 [13]): Active
- Activity (MGC-803 [14]): 97.5%
- Activity (MGC-803 [15]): 45.1%
- Activity (MGC-803 [16]): 4.15%
- Activity (MGC-803 [17]): 7.45%
- Activity (MGC-803 [18]): Dose-dependent effect
- Activity (MGC-803 [20]): Active
- viability at 2.5 µM (MGC-803 [22]): 37.3%
- inhibition in vivo at 6 mg/kg (MGC-803 [23]): 31.2%

From ChEMBL document CHEMBL4346660, “Cryptolepine and aromathecin based mimics as potent G-quadruplex-binding, DNA-cleavage and anticancer agents: Design, synthesis and DNA targeting-induced apoptosis” (Eur J Med Chem, 2019)
